Test results published in patent US11492335B2, “Aryl or heteroaryl triazolone derivatives or salts thereof, or pharmaceutical compositions comprising the same” (YUHAN CORPORATION, priority 2018, dated 2022).
Counter-ions that a name gives are not always drawn. Like-named read-outs stand apart in the source and are kept apart here.

Legend:
Assay type in all cases: biochemical
recombinant human VAP-1 = target: T1, recombinant human VAP-1 (Homo sapiens, UniProt Q16853); experiment: Activity on recombinant human VAP-1, Amplex Red HRP-coupled hydrogen peroxide assay, benzylamine substrate; conditions: recombinant human VAP-1, benzylamine substrate, read-out: Inhibitory Activity (IC50, nM) human VAP-1
T1 construct: purchased R&D systems
T1 sequence (Q16853 1-763): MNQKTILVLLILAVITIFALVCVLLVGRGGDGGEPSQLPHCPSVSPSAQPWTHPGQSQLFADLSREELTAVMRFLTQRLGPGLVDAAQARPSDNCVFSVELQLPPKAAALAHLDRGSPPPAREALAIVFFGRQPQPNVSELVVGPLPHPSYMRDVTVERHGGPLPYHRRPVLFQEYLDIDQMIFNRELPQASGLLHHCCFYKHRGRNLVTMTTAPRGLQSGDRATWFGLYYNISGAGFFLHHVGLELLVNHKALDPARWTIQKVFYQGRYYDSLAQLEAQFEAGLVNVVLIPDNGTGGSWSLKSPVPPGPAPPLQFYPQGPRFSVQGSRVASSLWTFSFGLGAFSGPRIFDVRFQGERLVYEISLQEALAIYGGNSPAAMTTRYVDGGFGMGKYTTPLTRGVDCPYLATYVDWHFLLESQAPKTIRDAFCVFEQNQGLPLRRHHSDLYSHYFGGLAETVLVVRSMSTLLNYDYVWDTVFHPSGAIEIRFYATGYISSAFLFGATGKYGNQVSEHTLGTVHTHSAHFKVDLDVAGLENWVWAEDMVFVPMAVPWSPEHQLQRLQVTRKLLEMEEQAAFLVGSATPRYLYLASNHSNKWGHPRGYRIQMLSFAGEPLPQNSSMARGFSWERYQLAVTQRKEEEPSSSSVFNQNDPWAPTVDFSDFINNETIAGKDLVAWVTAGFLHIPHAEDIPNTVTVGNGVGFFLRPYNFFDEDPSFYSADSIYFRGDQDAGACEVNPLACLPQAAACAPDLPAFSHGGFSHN
Outline: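 Fluorescence of resorufin formed from H2O2 (ex 544 nm, em 590 nm) was tracked for 1-2 h after adding 1 mM benzylamine, 200 uM Amplex Red and 1 U/mL HRP to enzyme pretreated with compound for 30 min at 37 °C. IC50 values derive from four-variable logistic fits.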

[1] = target: T2, recombinant human MAO-A (monoamine oxidase-A) (Homo sapiens, UniProt P21397); experiment: Activity on recombinant human MAO-A, Amplex Red method, 0.5 mM tyramine substrate; conditions: read-out: Inhibitory Activity (IC50, nM) MAO-A
T2 construct: purchased Sigma-Aldrich
T2 sequence (P21397 1-527): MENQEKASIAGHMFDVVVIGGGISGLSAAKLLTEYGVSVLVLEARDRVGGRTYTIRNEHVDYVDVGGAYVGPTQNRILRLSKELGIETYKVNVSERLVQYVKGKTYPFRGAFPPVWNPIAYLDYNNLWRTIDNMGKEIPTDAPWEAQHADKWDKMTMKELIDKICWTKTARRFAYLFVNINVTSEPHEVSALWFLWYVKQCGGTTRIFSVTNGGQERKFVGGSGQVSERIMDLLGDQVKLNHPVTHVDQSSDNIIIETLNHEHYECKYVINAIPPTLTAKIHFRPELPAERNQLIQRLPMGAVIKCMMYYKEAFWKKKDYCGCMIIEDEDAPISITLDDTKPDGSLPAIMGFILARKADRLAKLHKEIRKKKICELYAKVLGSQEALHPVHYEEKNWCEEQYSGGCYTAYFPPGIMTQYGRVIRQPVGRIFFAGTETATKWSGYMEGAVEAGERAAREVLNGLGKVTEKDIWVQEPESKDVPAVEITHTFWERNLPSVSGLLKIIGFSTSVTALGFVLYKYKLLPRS
Outline: (§1)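 Fluorescence (544/590 nm) of resorufin formed from Amplex Red by HRP and enzyme-generated H2O2 was followed over 1-2 h. Substrates were 0.5 mM tyramine for MAO-A and 1 mM benzylamine for MAO-B; compounds were preincubated with enzyme for 30 min at 37° C. IC50 came from four-parameter logistic fitting of signal-rate inhibition.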

[2] = target: T3, recombinant human MAO-B (monoamine oxidase-B) (Homo sapiens, UniProt P27338); experiment: Activity on recombinant human MAO-B, Amplex Red method, 1 mM benzylamine substrate; conditions: read-out: Inhibitory Activity (IC50, nM) MAO-B
T3 construct: purchased Sigma-Aldrich
T3 sequence (P27338 1-520): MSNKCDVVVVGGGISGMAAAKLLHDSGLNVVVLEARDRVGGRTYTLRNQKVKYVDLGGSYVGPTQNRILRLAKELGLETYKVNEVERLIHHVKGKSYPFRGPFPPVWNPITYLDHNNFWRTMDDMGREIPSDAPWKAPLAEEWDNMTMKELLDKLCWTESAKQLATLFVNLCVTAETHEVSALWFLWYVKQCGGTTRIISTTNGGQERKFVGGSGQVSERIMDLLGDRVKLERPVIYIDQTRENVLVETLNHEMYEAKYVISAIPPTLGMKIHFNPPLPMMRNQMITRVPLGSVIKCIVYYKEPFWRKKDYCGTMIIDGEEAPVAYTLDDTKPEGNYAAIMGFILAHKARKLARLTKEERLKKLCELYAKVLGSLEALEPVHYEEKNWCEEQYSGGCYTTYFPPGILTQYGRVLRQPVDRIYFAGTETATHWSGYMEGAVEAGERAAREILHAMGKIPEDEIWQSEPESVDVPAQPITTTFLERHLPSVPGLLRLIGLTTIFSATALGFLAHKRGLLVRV
Outline: as §1

[3] = target: T4, recombinant human DAO (diamine oxidase) (Homo sapiens, UniProt P19801); experiment: Activity on recombinant human DAO, Amplex Red method, 1 mM putrescine substrate; conditions: recombinant human DAO, read-out: Inhibitory Activity (IC50, nM) DAO
T4 construct: purchased R&D systems
T4 sequence (P19801 20-751): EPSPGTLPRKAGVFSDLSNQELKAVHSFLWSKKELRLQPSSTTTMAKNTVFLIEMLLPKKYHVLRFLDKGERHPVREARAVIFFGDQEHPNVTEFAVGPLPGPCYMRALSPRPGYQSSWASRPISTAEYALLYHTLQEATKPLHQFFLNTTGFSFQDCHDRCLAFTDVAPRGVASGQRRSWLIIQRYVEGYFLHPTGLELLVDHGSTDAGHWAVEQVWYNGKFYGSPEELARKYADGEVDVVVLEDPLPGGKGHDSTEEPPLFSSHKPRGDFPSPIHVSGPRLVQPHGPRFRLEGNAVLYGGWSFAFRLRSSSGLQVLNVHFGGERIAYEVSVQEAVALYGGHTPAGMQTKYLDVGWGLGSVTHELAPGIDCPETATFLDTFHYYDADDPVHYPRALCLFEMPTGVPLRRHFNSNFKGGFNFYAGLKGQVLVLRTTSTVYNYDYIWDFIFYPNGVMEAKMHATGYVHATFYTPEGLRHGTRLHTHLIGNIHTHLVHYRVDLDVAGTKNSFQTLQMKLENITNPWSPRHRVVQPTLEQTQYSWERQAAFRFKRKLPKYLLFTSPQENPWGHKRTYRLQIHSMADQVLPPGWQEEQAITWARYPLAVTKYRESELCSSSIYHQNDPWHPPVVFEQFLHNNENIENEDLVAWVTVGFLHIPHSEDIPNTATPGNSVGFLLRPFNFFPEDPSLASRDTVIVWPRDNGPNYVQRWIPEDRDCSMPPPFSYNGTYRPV
Outline: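 Inhibition of recombinant human DAO (diamine oxidase, R&D systems) was assessed with the Amplex Red Hydrogen Peroxide Assay Kit. Hydrogen peroxide produced from 1 mM putrescine was detected through an HRP-coupled reaction that converts Amplex Red into fluorescent resorufin, read at 544 nm excitation and 590 nm emission. IC50 values came from four-parameter logistic fits in GraphPad Prism.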

[4] = 1 mM putrescine, * = between 10 and 100 nM, ** = between 300 and 1000 nM

Structure (SMILES)	IC50 (recombinant human VAP-1; 30 min preincubation at 37° C.) [nM]	IC50 ([1]; 0.5 mM tyramine) [nM]	IC50 ([2]; 1 mM benzylamine) [nM]	IC50 [3, 4] [nM]	IC50 (recombinant human VAP-1) [nM]	IC50 ([1]; 0.5 mM tyramine substrate) [nM]	IC50 ([2]; 1 mM benzylamine substrate) [nM]	IC50 ([3]; 1 mM putrescine substrate) [nM]
Cc1cc(-c2cccc(-c3ncon3)c2)cnc1-n1cnn(C/C(=C/F)CN)c1=O [Example 140, 2-[(2E)-2-(aminomethyl)-3-fluoroprop-2-en-1-yl]-4-{3-methyl-5-[3-(1,2,4-oxadiazol-3-yl)phenyl]pyridin-2-yl}-2,4-dihydro-3H-1,2,4-triazol-3-one]	0.79	3400	3100	13000				
CC(=O)Nc1cc(-c2cnc(-n3cnn(C/C(=C/F)CN)c3=O)cn2)ccn1 [Example 220, N-[4-(5-{1-[(2E)-2-(aminomethyl)-3-fluoroprop-2-en-1-yl]-5-oxo-1,5-dihydro-4H-1,2,4-triazol-4-yl}pyrazin-2-yl)pyridin-2-yl]acetamide]					1.8	> 100000	396	< 100
NC/C(=C\F)Cn1ncn(-c2cccc(-c3cnc(O)c(C(F)(F)F)c3)c2)c1=O [Example 88, 2-[(2E)-2-(aminomethyl)-3-fluoroprop-2-en-1-yl]-4-{3-[6-hydroxy-5-(trifluoromethyl)pyridin-3-yl]phenyl}-2,4-dihydro-3H-1,2,4-triazol-3-one hydrochloride]	1.1	> 100000	9600	< 10				
Cc1cc(-c2ccc3sc(N)nc3c2)ncc1-n1cnn(C/C(=C/F)CN)c1=O [Example 127, 4-[6-(2-amino-1,3-benzothiazol-5-yl)-4-methylpyridin-3-yl]-2-[(2E)-2-(aminomethyl)-3-fluoroprop-2-en-1-yl]-2,4-dihydro-3H-1,2,4-triazol-3-one]	1.6	> 100000	617	< 100				
NC/C(=C\F)Cn1ncn(-c2cccc(C#Cc3cnc4c(c3)NCCO4)n2)c1=O [Example 251, 2-[(E)-2-(aminomethyl)-3-fluoro-allyl]-4-[6-[2-(2,3-dihydro-1H-pyrido[2,3-b][1,4]oxazin-7-yl)ethynyl]-2-pyridyl]-1,2,4-triazol-3-one]					0.3	> 100000	> 10000	21
NC/C(=C\F)Cn1ncn(-c2c(F)cc(Br)cc2F)c1=O [Example 22, 2-[(2E)-2-(aminomethyl)-3-fluoroprop-2-en-1-yl]-4-(4-bromo-2,6-difluorophenyl)-2,4-dihydro-3H-1,2,4-triazol-3-one hydrochloride]	1.4	12000	146	420				
Cc1cc(-n2cnn(C/C(=C/F)CN)c2=O)cnc1-c1ccc(-c2nc[nH]n2)cc1 [Example 115, 2-[(2E)-2-(aminomethyl)-3-fluoroprop-2-en-1-yl]-4-{5-methyl-6-[4-(1H-1,2,4-triazol-3-yl)phenyl]pyridin-3-yl}-2,4-dihydro-3H-1,2,4-triazol-3-one]	1.5	> 100000	980	< 100				
Cc1cc(-n2cnn(C/C(=C/F)CN)c2=O)cnc1-c1cccc(-c2nc[nH]n2)c1 [Example 116, 2-[(2E)-2-(aminomethyl)-3-fluoroprop-2-en-1-yl]-4-{5-methyl-6-[3-(1H-1,2,4-triazol-3-yl)phenyl]pyridin-3-yl}-2,4-dihydro-3H-1,2,4-triazol-3-one]	0.72	> 100000	6020	< 100				
Cc1cc(Br)cnc1-n1cnn(C/C(=C/F)CN)c1=O [Example 32, 2-[(2E)-2-(aminomethyl)-3-fluoroprop-2-en-1-yl]-4-(5-bromo-3-methylpyridin-2-yl)-2,4-dihydro-3H-1,2,4-triazol-3-one hydrochloride]	2.2	93000	51	> 100000				
COc1ccc(-c2ccc(C)c(-n3cnn(C/C(=C/F)CN)c3=O)n2)cn1 [Example 212, 2-[(2E)-2-(aminomethyl)-3-fluoroprop-2-en-1-yl]-4-(6′-methoxy-5-methyl-2,3′-bipyridin-6-yl)-2,4-dihydro-3H-1,2,4-triazol-3-one hydrochloride]					45	> 100000	> 10000	2200
COc1ccc(-c2cccc(-n3cnn(C/C(=C/F)CN)c3=O)c2)cn1 [Example 83, 2-[(2E)-2-(aminomethyl)-3-fluoroprop-2-en-1-yl]-4-[3-(6-methoxypyridin-3-yl)phenyl]-2,4-dihydro-3H-1,2,4-triazol-3-one hydrochloride]	0.88	> 100000	2460	< 30				
